Consider eleven compounds from US8828997B2, “2,3-dihydro-1H-imidazo(1,2-a)pyrimidin-5-one derivatives, preparation thereof, and pharmaceutical use thereof” (Sanofi, priority 2009, dated 2014).

Test [1] concerns translocation of the LC3 protein in Hela GFP-LC3 cells. Briefly: Translocation of the LC3 protein in Hela human cells measured by image analysis cytometry (test C, autophagy). The settings on record: Homo sapiens, HeLa, 2 h, EBSS + 10 μM hydroxychloroquine, cells with LC3 granulations, absolute IC50. Type of test: cell-based. As for the experimental part:
Inhibitory activity of the molecules on autophagy is measured by means of the translocation of the LC3 protein from the cytoplasm to the autophagosomes. For this, Hela cells were transfected with a vector encoding the chimeric protein GFP-LC3. A Hela clone stably expressing the GFP-LC3 protein was selected.
Study of the Translocation of the LC3 Protein in Hela Human Cells, Measured by Image Analysis Cytometry (Test C):
On day 1, the Hela GFP-LC3 cells are seeded into 96-well plates coated with poly-D-lysine (Greiner, #655946) at the concentration of 15000 cells/well in 200 μl of DMEM medium (DMEM Gibco #11960-044) containing 10% of foetal calf serum (FCS Gibco, #10500-056) and 1% glutamine (L-Glu Gibco #25030-024), and incubated at 37° C., 5% CO2, overnight.
On day 2, the cells are washed twice with EBSS (Sigma #E3024). The cells are then incubated in EBSS, 10 μM hydroxychloroquine and test products, for 2 hours at 37° C. in the presence of 5% CO2. The molecules are diluted in dimethyl sulphoxide (DMSO Sigma #D2650), the final DMSO percentage being 0.1%. The molecules are tested at increasing concentrations in a range that can extend from 10 nM to 1 μM.
After this incubation, the cells are fixed with 4% paraformaldehyde (Sigma #HT501128 4L) for 10 min. The cells are then washed twice with PBS and the nuclei then stained with 2 μg/ml of Hoechst 33342 (Invitrogen #H3570). The 96-well plates are then read with the iCyte image analysis cytometer (Compucyte).
The activity of the product is translated to IC50, obtained from a dose-response curve of various concentrations tested and representing the dose giving 50% specific inhibition (absolute IC50). 2 independent experiments make it possible to calculate the mean of the IC50 values.

Test [2] relates to P. falciparum (highly chloroquine-resistant strain Fcm29-Cameroon). Description: Antimalarial activity test (radioactive micromethod of Desjardins, tritiated hypoxanthine incorporation). Type of test: cell-based. The settings on record: Plasmodium falciparum, Erythrocyte, infected human erythrocytes, 48 h. As for the experimental part:
Antimalarial Activity Test
The antimalarial activity tests are carried out according to the radioactive micromethod of Desjardins (R. E. Desjardins, C. J. Canfield, J. D. Haynes, J. D. Chulay, Antimicrob. Agents Chemother., 1979, 16, 710-718). The assays are carried out in 96-well microplates (Test Plates Ref. 92696, Techno Plastic Products Ag, Zollstrasse 155, CH-8219 Trasadingen). The P. falciparum strains are cultured in solutions of RPMI 1640 supplemented with 5% of human serum with a haematocrit at 2% and a blood parasite concentration at 1.5%. For each assay, the parasites are incubated with selected concentrations of drugs for 48 h at 37° C. in a humid atmosphere and at 5% CO2. Artemisinin, artesunate and also chloroquine diphosphate are used as reference molecules. The first dilution of the drug is prepared at 1 mg/ml in dimethyl sulphoxide. The range of dilutions of the successive daughter solutions is also prepared in dimethyl sulphoxide. Each daughter dilution is subsequently diluted to 1/50 in RPMI 1640 supplemented with 5% of human serum, all the dilutions being carried out at 37° C. These dilutions are then added to the parasites in culture in the microplates. After addition of the drug, the parasites are in culture in RPMI 1640 containing 5% of human serum and 1% of dimethyl sulphoxide. The parasite growth is measured by incorporation of tritiated hypoxanthine (added 24 h after the beginning of the exposure to the drug) compared with the incorporation in the absence of drug.
The activity of the product is translated to % inhibition of the growth of P. falciparum (highly chloroquine-resistant strain Fcm29-Cameroon) at 1 μM and 0.1 μM in an in vitro test using infected human erythrocytes.

As a reminder, the IC50 is the concentration needed to halve the response being measured. In the case of `CCC(c1ccccc1)N1c2nc(N3CCOCC3)cc(=O)n2C[C@@]1(C)C(F)(F)F` (single isomer, unassigned) [Example 13, (S)-2-Methyl-7-morpholin-4-yl-1-((R) or (S)-1-phenylpropyl)-2-trifluoromethyl-2,3-dihydro-1H-imidazo[1,2-a]pyrimidin-5-one], in test [1], the half-inhibitory concentration (IC50) stood at 0.822 µM.

Turning to `COc1ccc(CCN2c3nc(N4CCOCC4)c(F)c(=O)n3C[C@@]2(C)C(F)(F)F)cc1` [Example 18, (2S)-6-Fluoro-1-[2-(4-methoxyphenyl)ethyl]-2-methyl-7-(morpholin-4-yl)-2-(trifluoromethyl)-2,3-dihydroimidazo[1,2-a]pyrimidin-5(1H)-one], the IC50 in test [1] was determined as 0.039 µM.

On to `C[C@H](CN1c2nc(N3CCOCC3)cc(=O)n2C[C@@]1(C)C(F)(F)F)c1ccccc1` [Example 9, (S)-2-Methyl-7-morpholin-4-yl-1-((S)-2-phenylpropyl)-2-trifluoromethyl-2,3-dihydro-1H-imidazo[1,2-a]pyrimidin-5-one], for which the IC50 in test [1] came to 0.191 µM.

Turning to `C[C@@]1(C(F)(F)F)Cn2c(nc(N3CCOCC3)cc2=O)N1CCSc1ccccc1` [Example 7, (S)-2-Methyl-7-morpholin-4-yl-1-(2-phenylsulfanylethyl)-2-trifluoromethyl-2,3-dihydro-1H-imidazo[1,2-a]pyrimidin-5-one], the IC50 in test [1] is 0.071 µM.

A word on the inhibition: it is how much of the control response was suppressed. In the case of `COc1ccc([C@H](O)CN2c3nc(N4CCOCC4)cc(=O)n3C[C@@]2(C)C(F)(F)F)c(Cl)c1` [Example 43, (S)-1-[(S)-2-(2-chloro-4-methoxyphenyl)-2-hydroxyethyl]-2-methyl-7-morpholin-4-yl-2-trifluoromethyl-2,3-dihydro-1H-imidazo[1,2-a]pyrimidin-5-one], in test [2], the inhibition at 0.1 µM stood at 22% and the inhibition at 1 µM came out at 74%.

Regarding `COc1cc(Cl)ccc1[C@H](O)CN1c2nc(N3CCOCC3)cc(=O)n2C[C@@]1(C)C(F)(F)F` [Example 41, (S)-1-[(S)-2-(4-chloro-2-methoxyphenyl)-2-hydroxyethyl]-2-methyl-7-morpholin-4-yl-2-trifluoromethyl-2,3-dihydro-1H-imidazo[1,2-a]pyrimidin-5-one], in test [2], the inhibition at 1 µM was found to be 78%.

As for `COc1ccc(CCN2c3nc(N4CCOCC4)cc(=O)n3CC2(C)C)cc1` [Example 17, 1-[2-(4-Methoxyphenyl)ethyl]-2,2-dimethyl-7-morpholin-4-yl-2,3-dihydro-1H-imidazo[1,2-a]pyrimidin-5-one], in test [1], the IC50 is 0.345 µM.

Take `C[C@@]1(C(F)(F)F)Cn2c(nc(N3CCOCC3)cc2=O)N1C[C@H](O)c1ccccc1` [Example 11]: the inhibition at 1 µM in test [2] came to 13%. Besides, the IC50 in test [1] was found to be 0.235 µM.

Regarding `COc1cc(F)ccc1[C@H](O)CN1c2nc(N3CCOCC3)cc(=O)n2C[C@@]1(C)C(F)(F)F` [Example 42, (S)-1-[(S)-2-(4-fluoro-2-methoxyphenyl)-2-hydroxyethyl]-2-methyl-7-morpholin-4-yl-2-trifluoromethyl-2,3-dihydro-1H-imidazo[1,2-a]pyrimidin-5-one], the inhibition at 1 µM in test [2] was 78%.

`COc1ccccc1[C@H](O)CN1c2nc(N3CCOCC3)cc(=O)n2C[C@@]1(C)C(F)(F)F` [Example 40, (S)-1-[(S)-2-hydroxy-2-(2-methoxyphenyl)ethyl]-2-methyl-7-morpholin-4-yl-2-trifluoromethyl-2,3-dihydro-1H-imidazo[1,2-a]pyrimidin-5-one]: in test [2], the inhibition at 0.1 µM is 20% and the inhibition at 1 µM is 80%.

As to `COc1cc(F)c(C(O)CN2c3nc(N4CCOCC4)cc(=O)n3C[C@@]2(C)C(F)(F)F)cc1OC` (stereo partly drawn) [Example 39, (S)-1-[2-(2-fluoro-4,5-dimethoxyphenyl)-2-hydroxyethyl]-2-methyl-7-morpholin-4-yl-2-trifluoromethyl-2,3-dihydro-1H-imidazo[1,2-a]pyrimidin-5-one], in test [2], the inhibition at 0.1 µM worked out at 39% and the inhibition at 1 µM stood at 85%.
